Experimental data reported in ChEMBL document CHEMBL2424624, “Syntheses and antitumor activities of N'1,N'3-dialkyl-N'1,N'3-di-(alkylcarbonothioyl) malonohydrazide: the discovery of elesclomol” (Bioorg Med Chem Lett, 2013).

How the values were obtained:
Format in all cases: ADME, organism-based
[1] = Cmax in rat at 5 mg/kg in presence of STA-4783; set-up: dose 5 mg/kg; conditions: in vivo
[2] = AUC in rat at 5 mg/kg in presence of STA-4783; set-up: dose 5 mg/kg; conditions: plasma
[3] = Half life in nu/nu mouse at 5 mg/kg in presence of STA-4783; set-up: dose 5 mg/kg; conditions: in vivo
[4] = AUC in nu/nu mouse at 5 mg/kg in presence of STA-4783; set-up: dose 5 mg/kg; conditions: plasma
[5] = Cmax in nu/nu mouse at 5 mg/kg in presence of STA-4783; set-up: dose 5 mg/kg; conditions: in vivo
[6] = Apparent terminal half life in Sprague-Dawley rat at 25 mg/kg, iv; set-up: dose 25 mg/kg, route intravenous; conditions: in vivo, read-out: betat1/2(app) (converted)
[7] = AUC in rat at 5 mg/kg; set-up: dose 5 mg/kg; conditions: plasma
[8] = Apparent terminal half life in nu/nu mouse at 25 mg/kg, iv; set-up: dose 25 mg/kg, route intravenous; conditions: in vivo, read-out: betat1/2(app) (converted)
[9] = Half life in rat at 5 mg/kg; set-up: dose 5 mg/kg; conditions: in vivo
[10] = Half life in nu/nu mouse at 25 mg/kg in presence of taxol; set-up: dose 25 mg/kg; conditions: in vivo
[11] = Volume of distribution at steady state in Sprague-Dawley rat at 25 mg/kg, iv; set-up: dose 25 mg/kg, route intravenous; conditions: in vivo, read-out: Vdss
[12] = Cmax in Sprague-Dawley rat at 25 mg/kg, iv; set-up: dose 25 mg/kg, route intravenous; conditions: in vivo
[13] = AUC in rat at 25 mg/kg in presence of taxol; set-up: dose 25 mg/kg; conditions: plasma
[14] = Half life in rat at 25 mg/kg in presence of taxol; set-up: dose 25 mg/kg; conditions: in vivo
[15] = AUC in nu/nu mouse at 25 mg/kg, iv; set-up: dose 25 mg/kg, route intravenous; conditions: plasma
[16] = Clearance in Sprague-Dawley rat at 25 mg/kg, iv; set-up: dose 25 mg/kg, route intravenous; conditions: in vivo
[17] = Cmax in rat at 5 mg/kg; set-up: dose 5 mg/kg; conditions: in vivo
[18] = Cmax in nu/nu mouse at 25 mg/kg, iv; set-up: dose 25 mg/kg, route intravenous; conditions: in vivo
[19] = Clearance in nu/nu mouse at 25 mg/kg, iv; set-up: dose 25 mg/kg, route intravenous; conditions: in vivo
[20] = Cmax in rat at 25 mg/kg in presence of taxol; set-up: dose 25 mg/kg; conditions: in vivo
[21] = AUC in Sprague-Dawley rat at 25 mg/kg, iv; set-up: dose 25 mg/kg, route intravenous; conditions: plasma
[22] = AUC in nu/nu mouse at 25 mg/kg in presence of taxol; set-up: dose 25 mg/kg; conditions: plasma
[23] = Cmax in nu/nu mouse at 25 mg/kg in presence of taxol; set-up: dose 25 mg/kg; conditions: in vivo
[24] = Volume of distribution at steady state in nu/nu mouse at 25 mg/kg, iv; set-up: dose 25 mg/kg, route intravenous; conditions: in vivo, read-out: Vdss

SMILES: CC(=O)O[C@H]1C(=O)[C@@]2(C)[C@H]([C@H](OC(=O)c3ccccc3)[C@]3(O)C[C@H](OC(=O)[C@H](O)[C@@H](NC(=O)c4ccccc4)c4ccccc4)C(C)=C1C3(C)C)[C@]1(OC(C)=O)CO[C@@H]1C[C@@H]2O [PACLITAXEL]
- Cmax [1]: 20.4 µM
- AUC [2]: 11.9 µM·h
- half-life [3]: 136 min
- AUC [4]: 2.95 µM·h
- Cmax [5]: 10.6 µM

SMILES: CN(NC(=O)CC(=O)NN(C)C(=S)c1ccccc1)C(=S)c1ccccc1 [ELESCLOMOL]
- half-life [6]: 116 min
- AUC [7]: 10.3 µM·h
- half-life [8]: 114 min
- half-life [9]: 186 min
- half-life [10]: 72 min
- Vd [11]: 0.1 L/kg
- Cmax [12]: 56.3 µM
- AUC [13]: 36.8 µM·h
- half-life [14]: 102 min
- AUC [15]: 35.9 µM·h
- clearance [16]: 13.2 mL/min/kg
- Cmax [17]: 21.7 µM
- Cmax [18]: 85.2 µM
- clearance [19]: 29 mL/min/kg
- Cmax [20]: 63.3 µM
- AUC [21]: 32.7 µM·h
- AUC [22]: 11.9 µM·h
- Cmax [23]: 37.8 µM
- Vd [24]: 0.51 L/kg
